Results from PMC9959553, “Promising Antifungal Molecules against Mucormycosis Agents Identified from Pandemic Response Box®: In Vitro and In Silico Analyses” (Journal of Fungi, 2023).

The molecules below were run on R. oryzae UCP1295 (assay: Screening of the Pandemic Response Box library at 5 µM). Conditions: 48 h, Table S1, mean of the four values.
Assay type: cell-based, Rhizopus oryzae
Summary of the method: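 Growth inhibition was read at 600 nm after conidia (2 × 10^5/mL) grew 48 h at 37 °C, 5% CO2, with 5 μM compound in glucose-supplemented (2%), MOPS-buffered RPMI (pH 7.2). Controls were posaconazole at 5 μM and 1% DMSO. The selection cut-off was at least 60% inhibition.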

In order of falling “% of growth inhibition, Mean” value:
1. C[C@@H](NC(=O)c1cccc(-c2cnc(-c3cc4ccccc4cn3)[nH]2)c1)c1ccc(F)cc1 [MMV1782211]  32.8%
2. Nc1nc(C(F)(F)F)cc2c1[nH]c(=O)n2Cc1ccccc1 [MMV1634389]  10.3%
3. CCc1cc(CCCOc2c(C)cc(-c3noc(C(F)(F)F)n3)cc2C)on1 [MMV1634556]  10.0%
4. Nc1nc(O)c(Br)c(-c2cccc(Cl)c2)n1 [MMV1645152]  4.7%
5. [N-]=[N+]=N[C@H]1C[C@H](n2ccc(=O)[nH]c2=O)O[C@@H]1CO [MMV1593520]  4.5%
6. CC(N)C12CC3CC(CC(C3)C1)C2 (stereo not drawn) [MMV637855]  3.7%
7. CN1c2ccc(Cl)cc2N(c2ccccc2)C(=O)c2cn(Cc3ccc(CN4CCOCC4)cc3)nc21 [MMV1782222]  3.4%
8. CN1CCN(Cc2ccc(-c3cnc4[nH]cc(-c5ccc6[nH]ccc6c5)c4c3)cc2)CC1 [MMV1580482]  1.5%
9. O=[N+]([O-])c1cn2c(n1)OC[C@@H](OCc1ccc(OC(F)(F)F)cc1)C2 [MMV688755]  1.3%
10. Nc1cc(-c2nc3ccccc3[nH]2)n[nH]c1=O [MMV975972]  0.3%
11. NC(=O)C(c1ccccc1)(c1ccccc1)[C@H]1CCCN(CCc2ccc3c(c2)CCO3)C1 [MMV1782412]  -1.5%
12. COc1ccc(COc2cc3oc(=O)c4cc(C(C)O)ccc4c3cc2OC)cc1 (stereo not drawn) [MMV1580799]  -1.6%
13. Cc1cccc(CC(=O)N[C@H]2CCOC2=O)c1 [MMV1579782]  -2.1%
14. NCc1ccc(S(N)(=O)=O)cc1 [MMV002665]  -2.2%
15. Cc1cc(CCOc2c(C)cc(-c3nnn(C)n3)cc2C)on1 [MMV1782349]  -3.0%
16. COc1ccc(C)cc1NC(=O)c1ccc(S(=O)(=O)N2CCCCC2)cc1 [MMV1578579]  -3.3%
17. Cl.N=C(N)c1ccc(COc2ccc(Cl)cc2)cc1 [MMV1579844]  -3.3%
18. CC#C[C@]1(O)CC[C@H]2[C@@H]3CCC4=CC(=O)CCC4=C3[C@@H](c3ccc(N(C)C)cc3)C[C@@]21C [MMV003297]  -3.7%
19. CCOCc1nc2c(N)nc3ccccc3c2n1CC(C)(C)O [MMV690547]  -3.7%
20. FC(F)(F)Oc1ccc(Nc2ccc3cccc(Cl)c3n2)cc1 [MMV1581032]  -3.7%
21. CN(O)C(=O)c1cc2c(CN3CCC[C@H]3C(N)=O)cn(Cc3ccc(F)cc3)c2cn1 [MMV1782386]  -4.5%
22. COc1cc(Cc2cnc(N)nc2N)cc(OC)c1OC [MMV000028]  -4.5%
23. CC[N+]1(C/C2=C/CCCCCC2)CCC(NC(=O)C2c3cc(Cl)ccc3Oc3ccc(Cl)cc32)CC1.[I-] (stereo not drawn) [MMV1580489]  -4.5%
24. NC(=O)c1ccc(I)c([N+](=O)[O-])c1 [MMV1581035]  -5.0%
25. CCN(CC)S(=O)(=O)c1ccc(Cl)c(C(=O)Nc2sc3c(c2C#N)CCCC3)c1 [MMV1634384]  -5.0%
26. COc1ccc(C(C)(C)C)cc1NC(=O)C(=O)c1ccc(OCCN2CCOCC2)c2ccccc12 [MMV1782209]  -5.8%
27. Nc1cnn(C2OC(CO)C(O)C2O)c(=O)n1 (stereo not drawn) [MMV1580495]  -5.9%
28. COc1cc(Cc2cnc(N)nc2N)c2c(c1OC)OC(C1CC1)C=C2 (stereo not drawn) [MMV1613563]  -6.9%
29. O=c1cc(OCc2ccccc2)ccn1Cc1ccccc1 [MMV1579775]  -7.1%
30. CC(C)(C)c1cc(C(=O)/C(C#N)=N/Nc2cccc(Cl)c2)no1 [MMV1578571]  -7.2%
31. Cl.Nc1nc(-c2ccccc2)nc2c1ncn2[C@@H]1O[C@H](COS(=O)(=O)NC(=O)c2ccccc2O)[C@@H](O)[C@H]1O [MMV1582488]  -7.5%
32. N#Cc1cc([N+](=O)[O-])ccc1Oc1ccccc1Cl [MMV1580800]  -8.1%
33. CC(=O)NC[C@H]1CN(c2ccc(N3CCSCC3)c(F)c2)C(=O)O1 [MMV688756]  -8.2%
34. CCCCN1C[C@H](O)[C@@H](O)[C@H](O)[C@H]1CO [MMV1782098]  -8.6%
35. O=C(O)c1cc(-c2ccc(Br)cc2)nc2ccc(Cl)cc12 [MMV247764]  -8.6%
36. CCN1CCN(Cc2nc3ccc([N+](=O)[O-])cc3c(=O)n2-c2ccccc2F)CC1 [MMV275100]  -8.8%
37. Nc1nc2c(ncn2[C@@H]2O[C@H](CO)[C@@H](O)[C@H]2F)c(=O)[nH]1 [MMV1633677]  -10.0%
38. CC(C)(C)c1cc(CCC(=O)N2CCC2)cc(C(C)(C)C)c1O [MMV1229204]  -11.2%
39. CCCCCCCCC(CP(=O)(O)C(C)N)C(=O)O (stereo not drawn) [MMV1582487]  -11.5%
40. CC(C)Oc1cccc(NC(=O)c2ccccc2C(F)(F)F)c1 [MMV1009286]  -12.9%
41. Cc1cc(C2CCCCC2)n(O)c(=O)c1 [MMV002731]  -13.0%
42. CCCCCOc1ccc(/C=C2\Oc3c(ccc(O)c3O)C2=O)c(O)c1 [MMV1580851]  -13.7%
43. CCCCc1ccc(S(=O)(=O)Nc2cc(C)on2)cc1 [MMV1782108]  -13.7%
44. C[C@H](c1cccc2ccccc12)N(C)Cc1ccccc1 [MMV1782221]  -14.5%
45. NCC(=O)Nc1ccc(-n2nc(C(F)(F)F)cc2-c2ccc3c(ccc4ccccc43)c2)cc1 [MMV1578560]  -14.6%
46. O=c1ccc2ncc(=O)n3c2n1CC3CN1CCC(NCc2cc3c(cn2)OCCC3)CC1 (stereo not drawn) [MMV1578568]  -14.8%
47. O=C(/C(=C/c1ccc(Cl)cc1Cl)n1ccnc1)c1ccc(Cl)cc1 [MMV1634491]  -15.1%
48. Nc1nc2c(ncn2/C=C2/CC2(CO)CO)c(=O)[nH]1 [MMV1782210]  -16.4%
49. OB1OCc2cc(Cl)ccc21 [MMV1634363]  -17.9%
50. CCOC(=O)/C=C/[C@H](C[C@@H]1CCNC1=O)NC(=O)[C@@H](CC(=O)[C@@H](NC(=O)c1cc(C)on1)C(C)C)Cc1ccc(F)cc1 [MMV1580491]  -18.6%
51. COc1ccc(NC(=O)c2cc3ccccn3n2)cc1 [MMV374187]  -18.8%
52. C=CCc1cc(Cc2cnc(N)nc2N)cc(OC)c1O [MMV1580849]  -19.9%
53. Cc1cc(C)n(O)c(=O)c1 [MMV1782389]  -20.7%
54. O=C(Nc1ccccc1C(=O)O)c1cccc(Oc2ccccc2)c1 [MMV1579784]  -27.4%
55. CCC[C@@H]1C[C@@H](C(=O)N[C@@H]([C@H]2O[C@H](SC)[C@H](O)[C@@H](O)[C@H]2O)[C@H](C)Cl)N(C)C1.Cl [MMV000051]  -29.6%
56. Cc1ccc(Oc2ccccc2-c2csc(N=C3NCCCN3)n2)c(C)c1 [MMV1634493]  -30.7%
57. COc1ccc(SC(=O)N[C@H](CCC(=O)O)C(=O)O)cc1 [MMV1580846]  -33.5%
58. C[C@@H](NC(=O)c1ccccc1-c1ccccc1)B(O)O [MMV1582493]  -37.1%
59. O=S(=O)(NCB(O)O)c1cc2c(Cl)ccc(Cl)c2s1 [MMV1580841]  -42.4%
60. NC(=O)c1[nH]c2ccc(S(N)(=O)=O)cc2c1-c1ccccc1 [MMV1581556]  -42.8%
